Assays:
[1] = molecular target: T1, cellular GPX4 in HT1080 cell lysate (Homo sapiens, UniProt P36969); assay: NADPH-coupled cellular GPX4-specific activity, HT1080 cell lysate; type: biochemical; details: 500 μM LOC1886 added to lysate
T1 construct: endogenous in cells; host or cells: HT-1080 (ATCC), whole-cell lysate
T1 sequence (P36969 1-197): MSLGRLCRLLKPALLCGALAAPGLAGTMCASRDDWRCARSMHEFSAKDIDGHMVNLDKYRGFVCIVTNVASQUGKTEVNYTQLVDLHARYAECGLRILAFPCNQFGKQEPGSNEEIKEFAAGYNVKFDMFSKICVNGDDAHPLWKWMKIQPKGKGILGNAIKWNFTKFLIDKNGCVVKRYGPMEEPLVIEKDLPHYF
Description: We applied a NADPH-coupled cellular GPX4 enzymatic activity assay as previously reported with minor modifications (Roveri et al. 1994). Oxidized glutathione, generated by GPX4 during reducing its specific phospholipid hydroperoxides substrate, was reduced by Glutathione Reductase at the expense of NADPH, the decrease in the characteristic absorbance of which at 340 nm was monitored and quantified as GPX4 activity. […] The concentration of protein in the lysate was determined using BCA assay kit using BSA as standards. […] Absorbance of NADPH at 340 nm was determined kinetically at 1 min interval over the 20 min time. […] Results were quantified using GraphPad Prism 9.
We applied a NADPH-coupled cellular GPX4 enzymatic activity assay as previously reported (Roveri et al. 1994). Oxidized glutathione, generated by GPX4 during reducing its specific phospholipid hydroperoxides substrate, was reduced by Glutathione Reductase at the expense of NADPH, the decrease in the characteristic absorbance of which at 340 nm was monitored and quantified as GPX4 activity. […] The concentration of protein in the lysate was determined using BCA assay kit using BSA as standards. […]

[2] = molecular target: T2, GPX4^U46C (Homo sapiens, UniProt P36969, U73C); assay: Co-crystal structure of GPX4^U46C with inhibitor; type: binding
T2 construct: His6 (N, cleaved yes); made in house; host or cells: E. coli BL21-Gold (DE3), M9 minimal medium with 15NH4Cl
T2 sequence (P36969 33-197 U73C): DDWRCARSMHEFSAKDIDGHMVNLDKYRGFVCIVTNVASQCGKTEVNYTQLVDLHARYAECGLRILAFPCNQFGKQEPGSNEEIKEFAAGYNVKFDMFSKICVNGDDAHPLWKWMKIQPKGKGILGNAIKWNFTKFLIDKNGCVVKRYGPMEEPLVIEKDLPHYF
Description: GPX4^U46C was pre-incubated with the covalent inhibitors before crystallization using the following specifically optimized condition.
RSL3 and ML162 condition: 50 μM GPX4^U46C incubated with 150 μM RSL3 or ML162 in the reaction buffer (20 mM Tris pH 9.0, 100 mM NaCl, 3 mM TCEP, 1.5% DMSO) at 15° C. for 1 hour before transferring to 4° C. overnight. CDS9 condition: 25 μM GPX4^U46C incubated with 2 mM CDS9 in the reaction buffer (100 mM Tris pH 9.0, 300 mM NaCl, 1 mM TCEP, 2% DMSO) at 37° C. for 2 hours before transferring to 4° C. overnight. TMT10 condition: 25 μM GPX4^U46C incubated with 2 mM TMT10 in the reaction buffer (100 mM Tris pH 9.0, 300 mM NaCl, 2% glycerol, 2% DMSO) at 37° C. for 4 hours before transferring to 4° C. overnight. MAC-5576 condition: 50 μM GPX4^U46C protein was incubated with 500 μM MAC-5576 in the reaction buffer (100 mM Tris pH 9.0, 300 mM NaCl, and 3 mM TCEP, 5% DMSO) at RT for 1 hour before transferring to 4° C. overnight.
After confirmation of covalent binding using intact protein MALDI MS analysis, the protein-inhibitor complex were exchanged into crystallization buffer (10 mM Tris pH 8.0, 5 mM TCEP) and concentrated to 5 mg/ml.

| SMILES | capability of cellular GPX4 to reduce phospholipid hydroperoxides [1] | binding site in co-crystal structure [2] |
| --- | --- | --- |
| COc1cccc2[nH]c(C(=O)n3ccnc3)cc12 [LOC1886] | inhibited the capability of cellular GPX4 |  |
| COC(=O)c1ccc([C@@H]2c3[nH]c4ccccc4c3C[C@@H](C(=O)OC)N2C(=O)CCl)cc1 [RSL3, (1S, 3R)-RSL3] |  | bind to cys66 |

— patent US20230167058A1, “GPX4 COMPOUNDS AND COMPOSITIONS AND METHODS OF TREATMENT USING SAME” (THE TRUSTEES OF COLUMBIA UNIVERSITY IN THE CITY OF NEW YORK, priority 2020, published 2023)
